How the values were obtained:
Assay type in all cases: physicochemical
[1] = Reduction potential of model compounds; details: pH 7 Buffer solution versus Normal Hydrogen Electrode (NHE)
Method: The redox potential of the solution is measured by open cell potential. […] Cyclic voltammetry can be used to identify the various oxidation states and redox potentials for future manipulation of redox state. Additionally, FIG. 5 in the present application provides a working example of this assay by depicting the cyclic voltammetry trace for hypericin. As shown, there are multiple peaks in the range of 0-2 volts, that are the result of the different redox states of hypericin. This is manipulated according to the preferred or desired redox state to be achieved.
Once the redox potential of the preparation is measured, the redox state may be adjusted to the preferred or desired condition at any stage as previously described.
The multiple oxidation states of the molecule of interest can be determined electrochemically by cyclic voltammetry. The first phase involves applying an excessive positive potential (oxidizing potential) and oxidizing all the species present to one form. Then the applied voltage is stepped down in increments while monitoring current. When the mid-point redox potential of a reaction is approached, molecules begin to be reduced, causing current through the circuit. After returning all molecules to the reduced form, the voltage is increased and the redox potentials of the reaction(s) are recorded. […]

[2] = Stability of electrochemically oxidized EGCG solutions after pH modification (UV-visible spectra)
From the text: Solutions were pH modified following electrochemical oxidation to observe stability. […] These samples were open to air, and no other precautions were taken to prevent oxidation by atmospheric oxygen.

[3] = Electrochemical oxidation of EGCG solutions at pH 6.0, followed by UV-visible absorbance and open circuit potential
From the text: An electrochemical cell was fabricated using a fine porosity glass frit in 1″ diameter glass tubing. The electrochemical cell houses the counter electrode and keeps the Ag/AgCl reference electrode and platinum working electrode separate from the counter electrode. This addition to the system allowed the preparation of bulk solution. The working electrode and reference electrode compartment was continuously stirred using a small stir bar and a magnetic stirrer to minimize gradient effects at the working electrode.
The EGCG solutions were oxidized using a positive potential to a visual end point. UV-visible spectral data were collected during these experiments, including the absorbance at 270 nm and 320 nm, corresponding to the phenol and quinone forms of EGCG, respectively. In addition, the open cell potential was recorded as experiments progressed. The active redox potentials and experimental endpoints were determined based on current and visual color changes.
Due to solution evaporation over time, the ratio of absorbance at 320 nm divided by the absorbance at 270 nm was determined in order to account for overall absorption increases. […] In addition, the visual change in solution color from clear to yellow and pink was also monitored as an indicator of degree of oxidation.
Stirred EGCG solutions in 0.1 M phosphate buffer with 0.1 M KCl at pH 6.0 were monitored. […]

SMILES	Reduction Potential [1] [mV]	stability of pH-modified sample after electrochemical oxidation ([2]; EGCG solution pH 6.26, 1500 mV for 11.4 hours, then pH 8.43, open to air, after 7 days)	stability of pH-modified samples after electrochemical oxidation ([2]; EGCG solution pH 6.26, 1500 mV for 11.4 hours, then pH modified, open to air, after one day)	oxidation of control samples ([2]; control samples at pH 6.26, no potential)	change in absorbance at 270 and 320 nm ([3]; after seven hours, 800 mV solution and control solution)	stability of electrochemically-induced changes (320 nm absorbance over time) ([3]; solutions left with no current after 68 h, until 120 h)
O=C(O)/C=C/c1ccc(O)c(O)c1 [Caffeic Acid]	120					
O=C(O[C@@H]1Cc2c(O)cc(O)cc2O[C@@H]1c1cc(O)c(O)c(O)c1)c1cc(O)c(O)c(O)c1 [Epigallocatechin gallate, epigallocatechin gallate]		relatively stable after 7 days	stable after one day	did not oxidize	no change	stable for over two days
O=c1c(O)c(-c2ccc(O)c(O)c2)oc2cc(O)cc(O)c12 [Quercitin]	120					

Source: patent US20090023804A1, “ELECTROCHEMICAL METHODS FOR REDOX CONTROL TO PRESERVE, STABILIZE AND ACTIVATE COMPOUNDS” (priority 2006, published 2009)
